Measurements taken from patent US20250129062A1, “AMORPHOUS SUBSTANCES, CRYSTALS, PHARMACEUTICAL COMPOSITIONS, PREPARATION METHODS AND USES OF THIOHYDANTOIN COMPOUND OR PHARMACEUTICALLY ACCEPTABLE SALT THEREOF” (SUZHOU KINTOR PHARMACEUTICALS, INC., priority 2021, published 2025).
“And” between values parts separate entries of the source, which are not always exact repeats. Equal values may be shown once. Read-outs that look alike come from different tables or passages of the source.

What was measured:
[1] = Distribution of compound in sebaceous glands and blood of golden hamsters after single skin application; assay type: in vivo; conditions: for Concentration in sebaceous glands / concentration at 8 h: 8 h
Description: 6 male golden hamsters were selected for the experiment, and randomly divided evenly into 2 groups, with three golden hamsters per group. All animals were fasted overnight before administration, and were administered via a route of single application. Sampling was performed at specific time points after administration. Specific information on animal grouping, administration, sampling, etc. were detailed in Table 6.
The amorphous substance of the compound of formula I was weighed and placed in a 50 mL centrifugal tube. A mixed solvent (consisting of 75% v/v ethanol, 15% v/v glyceryl tri (2-ethylhexanoate) and 10% v/v glycerin) was added. After vortexing, heating was performed at 60° C. until the amorphous substance of the compound of formula I was completely dissolved. The amorphous substances of the compound of formula I in the two groups were prepared at 30 mg/mL and 100 mg/mL, respectively, and stored at room temperature in the dark.
After administration, blood was collected into blood collection tubes containing a heparin sodium anticoagulant at corresponding time points. Immediately after collection of whole blood, the blood collection tubes were gently shaken and placed on ice, and then centrifuged (4° C., 4000 rpm, 10 min). The supernatant plasma samples (plasma volume ≥100 μL) were collected, and stored in a refrigerator at about −80° C. The plasma samples were collected for 8 h for analysis.

[2] = Solubility of amorphous substance in solvent systems (supersaturated solution, oscillated 24 h at room temperature, HPLC); assay type: physicochemical; conditions: dehydrated alcohol 50%: water 50% (w/w), aqueous with cosolvent or surfactant or cyclodextrin, thermodynamic from solid, Dehydrated alcohol 50%: water 50% (w/w); read-out: 24 h solubility
Description: The amorphous substance of the compound of formula I was prepared into supersaturated solutions with different solvents, and oscillated under a room temperature condition (a constant temperature). After oscillating for 24 h, sampling was performed, and the content of the sample was detected by HPLC under condition 1.
Condition 1: • Chromatographic column: C18 (150 mm×4.6 mm×3.5 μm); • Mobile phase: binary mobile phase system, mobile phase A was 0.1% formic acid in water, mobile phase B was acetonitrile; • Elution time: 68 min; • Elution mode: gradient elution (in the gradient elution process, mobile phase A had the maximum volume percentage of 95% and the minimum volume percentage of 10%); • Detection wavelength: 270 nm.

Cc1ncsc1-c1ccc(CNC(=O)[C@@H]2C[C@@H](O)CN2C(=O)[C@@H](NC(=O)COCCCCOc2ccc(-c3ccc(N4C(=S)N(c5ccc(C#N)c(C(F)(F)F)c5F)C(=O)C4(C)C)cn3)cc2)C(C)(C)C)cc1 [compound of formula I]
Concentration in sebaceous glands ([1]; Left sebaceous gland, dose 1.2 mg, individual animals No. 1-3): 10900 ng/mL and 20400 ng/mL and 7010 ng/mL
Concentration in sebaceous glands ([1]; Left sebaceous gland, dose 4 mg, individual animals No. 4-6): 57100 ng/mL and 15000 ng/mL and 8340 ng/mL
Concentration in sebaceous glands ([1]; Right sebaceous gland, dose 1.2 mg, individual animals No. 1-3): 17900 ng/mL and 15700 ng/mL
Concentration in sebaceous glands ([1]; Right sebaceous gland, dose 4 mg, individual animals No. 4-6): 19900 ng/mL and 18400 ng/mL
distribution between sebaceous glands and blood after skin application ([1]; golden hamsters, administration via skin application): can enter sebaceous glands, but cannot enter blood
maximum blood drug concentration ([1]; group 2, dose 4 mg, over sampling time points 0.25, 0.5, 1, 2, 4, 6 and 8 h): 10.6 ng/mL
Concentration of compound of formula I in plasma ([1]; male golden hamsters, skin application 4 mg, 2 h, individual animals No. 4, 5, 6): 10.6 ng/mL
Concentration of compound of formula I in plasma ([1]; male golden hamsters, skin application 4 mg, 4 h, individual animals No. 4, 5, 6): 4.42 ng/mL
concentration at 0.5 h ([1]; male, hamster, plasma, topical, 4 mg, male golden hamsters, skin application 4 mg, 0.5 h, individual animals No. 4, 5, 6, read-out: Concentration of compound of formula I in plasma): < 0 ng/mL
concentration at 1 h ([1]; male, hamster, plasma, topical, 4 mg, male golden hamsters, skin application 4 mg, 1 h, individual animals No. 4, 5, 6, read-out: Concentration of compound of formula I in plasma): < 0 ng/mL
concentration at 2 h ([1]; male, hamster, plasma, topical, 4 mg, male golden hamsters, skin application 4 mg, 2 h, read-out: Concentration of compound of formula I in plasma, Mean): 11 ng/mL
concentration at 4 h ([1]; male, hamster, plasma, topical, 4 mg, male golden hamsters, skin application 4 mg, 4 h, read-out: Concentration of compound of formula I in plasma, Mean): 4 ng/mL
concentration at 8 h ([1]; male, hamster, right sebaceous gland, topical, 1.2 mg, Right sebaceous gland, dose 1.2 mg, individual animals No. 1-3, read-out: Concentration in sebaceous glands): 9170 ng/mL
concentration at 8 h ([1]; male, hamster, right sebaceous gland, topical, 4 mg, Right sebaceous gland, dose 4 mg, individual animals No. 4-6, read-out: Concentration in sebaceous glands): 26600 ng/mL
concentration at 8 h ([1]; male, hamster, sebaceous glands (left and right), topical, 1.2 mg, left and right sebaceous glands, dose 1.2 mg, read-out: Concentration mean in sebaceous glands): 13500 ng/mL
concentration at 8 h ([1]; male, hamster, sebaceous glands (left and right), topical, 4 mg, left and right sebaceous glands, dose 4 mg, read-out: Concentration mean in sebaceous glands): 24200 ng/mL
solubility at 24 h [2]: 6440 µg/mL
